Measured values from patent publication US20180339010A1, “USE OF SHORT SYNTHETIC PEPTIDE FOR THE TREATMENT AND/OR PROPHYLAXIS OF DRY EYE DISEASE” (priority 2015, published 2018).

Tests used:
Format in all cases: in vivo, C57BL/6 mice
[1] = test system: desiccating stressed-mice; experiment: Tear production (phenol red thread), prophylactic treatment in desiccating stress-induced dry eye model; settings: peptide 100 μM topically three times daily for 14 days in CEC; vehicle control 3.7±0.25
Procedure: (§1) C57BL/6 mice (7-8 weeks old, each weighted about 18 to 25 g) were used in the present study. All mice were maintained in the animal facility in accordance with the procedures approved by Mackay Memorial Hospital Review Board (Taiwan, R.O. C.). All animal experimental procedures were conducted according to the ARVO Statement for the Use of Animals in Ophthalmic and Vision Research.
(§2) Dry eyes were induced by placing mice in a controlled environment chamber (CEC) in accordance with procedures previously described by Barabino et al (IVOS (2005) 46(8), 2766-2771). Mice placed in the CEC were exposed to a relative humidity (RH)<25%, temperature of 20 to 22° C., and airflow of 15 L/min, 12 hours per day. Control mice were kept in a normal environment (RH >50%, no air flow, temperature of 21-23° C.) for the same duration.
Tear production was measured by phenol red-impregnated cotton threads (Zone-Quick; Oasis, Glendora, Calif.). The validity of this test in mice was performed in accordance with procedures previously described by Dursun et al. (IVOS (2002) 43, 632-638). The threads were held with jeweler forceps and placed in the lateral canthus for 60 seconds. The tear production expressed in millimeters of thread wet by the tear and turned red.
(§3) Dry eye was created in mice using a controlled environmental chamber (CEC) in accordance with procedures described in the “material and method” section. Treatment was started on the first day when the mice were housed in CEC, in which the present synthetic peptide (i.e., 7-mer, 100 μM), peptide vehicle (1% CMC), or peptides derived from 7-mer (i.e., 7-mer-ΔD, 7-mer-ΔS, 7-mer (V→L) and 7-mer (VR→QK), 100 μM) were topically administered to eyes three times daily for 14 days. The peptides 7-mer-ΔD (LYRVRS, SEQ ID NO: 6) and 7-mer-ΔS (DLYRVR, SEQ ID NO: 7) represented peptides with one amino acid residue respectively deleted from 5-end (D; Aspartic acid) and 3′-end (S; Serine) of 7-mer, and were used as negative control peptides. In addition, the effects of single and double amino-acid substitution at 7-mer that generate 7-mer (V→L) and 7-mer (VR→QK) were also used to treat dry eye.
The protective effects of 7-mer and its derivatives on DED were also evaluated by measuring tears produced by the test animals, and results are depicted in FIG. 2.

[2] = test system: desiccating stressed-mice; experiment: Corneal fluorescein staining, prophylactic treatment in desiccating stress-induced dry eye (CEC) model; settings: for biological function towards DED (summary statement): deletion peptides of SEQ ID NO: 2; for corneal fluorescein staining (score), FIG. 1B: peptide 100 μM topically to eyes three times daily for 14 days, started first day in CEC, 1% CMC vehicle 3.8±0.31
Procedure: as §1, §2
Animals were anesthetized by an intraperitoneal injection of a mixture of zoletil (6 mg/kg) and xylazine (3 mg/kg). Corneal epithelial injury was determined by staining with topical fluorescein (Fluor-I-Strip, Ayerst Laboratories, Philadelphia, Pa.). Corneal fluorescein staining was examined with a slit-lamp biomicroscope under cobalt blue light and photographed with a digital camera. Data is presented as mean±SD. The number of fluorescein staining dots were graded in the 1-mm central cornea zone of each eye, on a standardized five-point scale (0 dot, grade 0; 1-5 dots, grade 1; 6-15 dots, grade 2; 16-30 dots, grade 3; 30 dots, grade 4). One point was added to the score if there was one area of confluent staining, and two points were added for two or more areas of confluence. (Li J et al., Mole Visions 2012, 18, 317)
as §3
Fluorescein staining was used to assess changes in corneal epithelial integrity, and results are illustrated in FIGS. 1A and 1B. FIG. 1A are photographs taken on dry eyes respectively treated with the 1% CMC vehicle, 7-mer and its derivates; and FIG. 1B gives the quantitative analysis of FIG. 1A.

[3] = test system: desiccating stressed-mice; experiment: Corneal epithelial histopathology (H&E), detached superficial apical cells, therapeutic treatment; settings: 14 days in CEC, then eye drops for 7 days, peptides 100 μM; for detached superficial apical cells on H&E stained cornea sections, observation in words, FIG. 4A: 0.1% Dex; for detached superficial apical cells (number), FIG. 4B: 1% CMC control 14±1.06
Procedure: as §1, §2
The corneal epithelial damage was assessed as described previously (Pflugfelder et al., 2005, Am J Pathol 166, 61-71). In brief, the number of detaching apical cells was counted from a full microscope field-of vision from three separate tissue sections, by two independent masked observers, using a 20 objective. Three mice were evaluated in each treatment
Dry eye was created by housing the test animals in CEC for 14 days in accordance with procedures described in the “material and method” section. After confirmation of signs of DED by fluorescein stain (FIG. […] 3A; lower panel; day 21; and FIG. 3B).

[4] = test system: desiccating stressed-mice; experiment: PAS staining of goblet cells in conjunctival epithelium, therapeutic treatment; settings: 14 days in CEC, then eye drops for 7 days; for number of goblet cells in PAS-stained sections, observation in words, FIG. 5A: peptides 100 μM
Procedure: as §1, §2
After animals were euthanized, eyes were surgically excised, fixed in 10% formalin, paraffin embedded, and cut into 5-μm sections. […] Statistics
Dry eye was created by housing the test animals in CEC for 14 days in accordance with procedures described in the “material and method” section. After confirmation of signs of DED by fluorescein stain (FIG. 3A; upper panel; day 14), animals were then removed from the CEC and placed in the normal environment (day 15), then started treatment by administering eye drop containing 1% CMC, 1% dexamethasone (Dex), 7-mer (100 μM), or 7-mer (ΔS) (100 μM) for 7 days (FIG. 3A; lower panel; day 21; and FIG. 3B).

[5] = test system: desiccating stressed-mice; experiment: Corneal fluorescein staining, therapeutic treatment of desiccation stress-induced dry eye; settings: 14 days in CEC, then eye drops for 7 days in normal environment (day 21); peptides 100 μM; 1% CMC control 3.6±0.26
Procedure: as §1, §2
Animals were anesthetized by an intraperitoneal injection of a mixture of zoletil (6 mg/kg) and xylazine (3 mg/kg). Corneal epithelial injury was determined by staining with topical fluorescein (Fluor-I-Strip, Ayerst Laboratories, Philadelphia, Pa.). Corneal fluorescein staining was examined with a slit-lamp biomicroscope under cobalt blue light and photographed with a digital camera. Data is presented as mean±SD. […]

Substance: DLYRQKS [7-mer (VR→QK), NH2-Asp-Leu-Tyr-Arg-Gln-Lys-Ser-COOH]
- tear production (thread wet by the tear), FIG. 2 [1]: 4.9±0.15 millimeters

Substance: DLYRVR [7-mer (ΔS), negative control peptide, 7-mer with C-terminal serine deleted]
- biological function towards DED (summary statement) [2]: do not possess any biological function towards DED
- corneal fluorescein staining (score), FIG. 1B [2]: no such effect
- detached superficial apical cells on H&E stained cornea sections, observation in words, FIG. 4A [3]: Detached superficial apical cells were identified
- detached superficial apical cells (number), FIG. 4B [3]: 13.8±1.03
- number of goblet cells in PAS-stained sections, observation in words, FIG. 5A [4]: significant reduction in the number of goblet cells
- tear production (thread wet by the tear), FIG. 2 [1]: neither 7-mer (ΔD) nor 7-mer (ΔS) peptides possessed such effect
- corneal fluorescein staining score, FIG. 3B [5]: no therapeutic effect

Substance: DLYRVRS [7-mer, NH2-Asp-Leu-Tyr-Arg-Val-Arg-Ser-COOH]
- corneal fluorescein staining (score), FIG. 1B [2]: 1.3±0.21
- detached superficial apical cells on H&E stained cornea sections, observation in words, FIG. 4A [3]: no detached cells were found
- detached superficial apical cells (number), FIG. 4B [3]: 2.1±0.37
- goblet cells (number), FIG. 5B ([4]; 7-mer 100 μM, 1% CMC control 7.5±0.96): 12.7±1.28
- number of goblet cells in PAS-stained sections, observation in words, FIG. 5A [4]: relatively the same as that of the normal healthy mice
- tear production (thread wet by the tear), FIG. 2 [1]: 5.1±0.21 millimeters
- corneal fluorescein staining score, FIG. 3B [5]: 1.5±0.18

Substance: LYRVRS [7-mer (ΔD), negative control peptide, 7-mer with N-terminal aspartate deleted]
- biological function towards DED (summary statement) [2]: do not possess any biological function towards DED
- corneal fluorescein staining (score), FIG. 1B [2]: no such effect
- tear production (thread wet by the tear), FIG. 2 [1]: neither 7-mer (ΔD) nor 7-mer (ΔS) peptides possessed such effect

Substance: DLYRLRS [7-mer (V→L), NH2-Asp-Leu-Tyr-Arg-Leu-Arg-Ser-COOH]
- tear production (thread wet by the tear), FIG. 2 [1]: 5.0±0.16 millimeters
